Experimental data from patent publication US4542137A, “Alkylaminodesoxy-1.4;3.6-dianhydrohexitol nitrates substituted by purine bases and pharmaceutical compositions” (priority 1980, dated 1985).
pIC50: −log10 of the molar value. Where two headings read alike, the source gives them in different places.

Key:
female NMRI-albino mice = test: examination of acute toxicity, i.v., female NMRI-albino mice; type: in vivo; conditions: within 24 hours; for Frequency of death with an intravenous dose of 100 mg/kg: 100 mg/kg i.v.; for Frequency of death with an intravenous dose of 200 mg/kg: 200 mg/kg i.v.; for Frequency of death with an intravenous dose of 50 mg/kg: 50 mg/kg i.v.
Method: (§1) . The compounds were injected to at least 3 animals per dose. If no animal had yet been died following to the highest dose which was administered, no more doses of substances were tested. In case of doubt, the examination was repeated with at least 3 more animals applying the same dose.
(§2) The rate of death within 24 hours after administration was observed.
(§3) In table IX, the determined rates of death as well as the LD50 -ranges evaluated therefrom are shown.

[1] = as above; type: in vivo; conditions: mouse, in vivo, iv, mice, 24 hours; read-out: Evaluated LD50-range
Method: as §1, §2, §3

[2] = tested on: isolated rat aorta preparations; test: spasmolytic effectiveness on isolated rat aorta preparations (noradrenaline- and potassium chloride-induced contractions)
[3] = tested on: isolated guinea pig hearts; test: coronary flowthrough-increasing effectiveness on isolated guinea pig hearts according to Langendorff; conditions: Cavia porcellus, 25 μg/ml in tyrode solution, Langendorff heart; for activation at 25 µg/mL: read-out: flowthrough (coronary), percentage change in comparison with the initial value
Method: After achieving the stationary state in the 30th minute, the hearts were each infused with 50 ml. tyrode solution with a content of test substance of, in each case, 25 μg./ml. Each test substance was tested on 3-6 hearts.
In each case, there was measured the inotropism, the flowthrough and the frequency, whereby the values given in Table I are average values of the percentage changes in comparison with the starting values.

[4] = read-out: ED50 for spasmolytic action, Noradrenaline spasm (50% inhibition)
[5] = read-out: ED50 for spasmolytic action, potassium chloride spasm (50% inhibition)
[6] = read-out: frequency, percentage change in comparison with the initial value
[7] = read-out: inotropism, percentage change in comparison with the initial value

SMILES	Frequency of death with an intravenous dose of 100 mg/kg (female NMRI-albino mice)	Frequency of death with an intravenous dose of 200 mg/kg (female NMRI-albino mice)	LD50 at 24 h [1] [mg/kg]	pIC50 [2, 4]	pIC50 [2, 5]	activation at 25 µg/mL [3] [%]	inhibition at 25 µg/mL [3, 6] [%]	inhibition at 25 µg/mL [3, 7] [%]	Frequency of death with an intravenous dose of 50 mg/kg (female NMRI-albino mice)	percent change from initial value at 25 µg/mL [3, 6] [%]
Cn1c(=O)c2c(ncn2CCN[C@H]2CO[C@H]3[C@@H]2OC[C@@H]3O[N+](=O)[O-])n(C)c1=O [Example 2, 5-(2-Theophyllin-7-ylethyl)-amino-5-desoxy-1.4;3.6-dianhydro-L-iditol 2-nitrate]	0/3	1/3	≥ 200	5.38	4.52	34.7	-3.5	4.6	–	–
Cn1c(=O)c2c(ncn2CCCCN[C@H]2CO[C@H]3[C@@H]2OC[C@@H]3O[N+](=O)[O-])n(C)c1=O [Example 3, 5-(4-Theophyllin-7-ylbutyl)-amino-5-desoxy-1.4;3.6-dianhydro-L-iditol 2-nitrate]	–	0/6	> 200	5.59	5.44	36.4	4.8	3.82	–	–
Cn1c(=O)c2c(ncn2CCCCCN[C@H]2CO[C@H]3[C@@H]2OC[C@@H]3O[N+](=O)[O-])n(C)c1=O [Example 4, 5-(5-Theophyllin-7-ylpentyl)-amino-5-desoxy-1.4;3.6-dianhydro-L-iditol 2-nitrate]	0/10	10/10	100 to 200	5.57	5.42	55.7	8.41	5.44	–	–
Cn1c(=O)c2c(ncn2CCCCCCN[C@H]2CO[C@H]3[C@@H]2OC[C@@H]3O[N+](=O)[O-])n(C)c1=O [Example 5, 5-(6-Theophyllin-7-ylhexyl)-amino-5-desoxy-1.4;3.6-dianhydro-L-iditol 2-nitrate]	4/10	10/10	≥ 100	6.44	5.62	61.9	11.1	43.3	0/10	–
Cn1c(=O)c2c(ncn2CC(O)CN[C@H]2CO[C@H]3[C@@H]2OC[C@@H]3O[N+](=O)[O-])n(C)c1=O (stereo partly drawn) [Example 6, 5-(2-Hydroxy-3-theophyllin-7-ylpropyl)-amino-5-desoxy-1.4;3.6-dianhydro-L-iditol 2-nitrate]	–	–	–	5.95	4.74	53.3	-3.39	-4.5	–	–
Cn1cnc2c1c(=O)n(CCCN[C@H]1CO[C@H]3[C@@H]1OC[C@@H]3O[N+](=O)[O-])c(=O)n2C [Example 7c, 5-[3-(3,7-Dimethylxanthin-1-yl)-propylamino]-5-desoxy-1.4;3.6-dianhydro-L-iditol 2-nitrate]	–	0/6	> 200	–	–	28.9	–	-10.5	–	0
CC(C)Cn1c(=O)n(C)c(=O)c2c1ncn2CCCN[C@H]1CO[C@H]2[C@@H]1OC[C@@H]2O[N+](=O)[O-] [Example 8c, 5-[3-(3-Isobutyl-1-methylxanthin-7-yl)-propylamino]-5-desoxy-1.4;3.6-dianhydro-L-iditol 2-nitrate]	0/3	11/13	100 to 200	–	–	–	–	–	–	–
Cn1c(=O)c2c(ncn2CCCN[C@@H]2CO[C@H]3[C@@H]2OC[C@@H]3O[N+](=O)[O-])n(C)c1=O [Example 10c, 5-(3-Theophyllin-7-ylpropyl)-amino-5-desoxy-1.4;3.6-dianhydro-D-glucitol 2-nitrate]	–	0/6	> 200	–	–	13	5.6	6.4	–	–
Cn1c(=O)c2c(ncn2CCCN[C@H]2CO[C@H]3[C@@H]2OC[C@H]3O[N+](=O)[O-])n(C)c1=O [Example 11d, 2-(3-Theophyllin-7-ylpropyl)-amino-2-desoxy-1.4;3.6-dianhydro-D-glucitol 5-nitrate]	–	0/6	> 200	–	–	–	–	–	–	–
Cn1c(=O)c2c(ncn2CCCN[C@@H]2CO[C@H]3[C@@H]2OC[C@H]3O[N+](=O)[O-])n(C)c1=O [Example 12d, 5-(3-Theophyllin-7-ylpropyl)-amino-5-desoxy-1.4;3.6-dianhydro-D-mannitol 2-nitrate]	–	0/6	> 200	–	–	–	–	–	–	–
Nc1ncnc2c1ncn2CCN[C@H]1CO[C@H]2[C@@H]1OC[C@@H]2O[N+](=O)[O-] [Example 13, 5-(2-Adenin-9-ylethyl)-amino-5-desoxy-1.4;3.6-dianhydro-L-iditol 2-nitrate]	–	0/6	> 200	–	–	12.2	–	-2.3	–	0
Nc1ncnc2c1ncn2CCCN[C@H]1CO[C@H]2[C@@H]1OC[C@@H]2O[N+](=O)[O-] [Example 14, 5-(3-Adenin-9-ylpropyl)-amino-5-desoxy-1.4;3.6-dianhydro-L-iditol 2-nitrate]	–	–	–	5.85	4.36	55.8	–	-3.8	–	0
Nc1ncnc2c1ncn2CCCCN[C@H]1CO[C@H]2[C@@H]1OC[C@@H]2O[N+](=O)[O-] [Example 15, 5-(4-Adenin-9-ylbutyl)-amino-5-desoxy-1.4;3.6-dianhydro-L-iditol 2-nitrate]	3/3	3/3	< 50	–	–	47.1	3.45	-3.85	3/3	–
Nc1ncnc2c1ncn2CCCCCN[C@H]1CO[C@H]2[C@@H]1OC[C@@H]2O[N+](=O)[O-] [Example 16, 5-(5-Adenin-9-ylpentyl)-amino-5-desoxy-1.4;3.6-dianhydro-L-iditol 2-nitrate]	0/10	10/10	100 to 200	–	–	22.5	6.8	-6.5	–	–
Nc1ncnc2c1ncn2CCCCCCN[C@H]1CO[C@H]2[C@@H]1OC[C@@H]2O[N+](=O)[O-] [Example 17, 5-(6-Adenin-9-ylhexyl)-amino-5-desoxy-1.4;3.6-dianhydro-L-iditol 2-nitrate]	2/3	3/3	50 to 100	–	–	60.6	3.6	11.5	0/10	–
